Assay results from ChEMBL document CHEMBL1201862, “PubChem BioAssay data set” (2004).
Active and inactive are the calls of the source.

Experiments:
[1] = target: Cyclin-dependent kinase 5/CDK5 activator 1 (Homo sapiens, UniProt Q00535); test: CDK5/p35 kinase inhibitors, dose response, biochemical, cherry-picked samples, set 2 (AID 504545)
[2] = Luminescence Cell-Based Dose Response HTS to Identify Activators of Luciferase Translation or Activity in H4 […] Cells. [Related pubchem assays: 1829 (Project Summary), 1814 (Primary HTS)]; assay type: functional
cells [3] = assay type: functional
[4] = inhibitors of SNCA 5'UTR-driven reporter translation, confirmation, H4 neuroglioma cells, luminescence (AID 1988); assay type: functional, cell-based
cells [5] = assay type: functional, cell-based
[6] = THP-1 cell cytotoxicity, dose response, cytotoxicity control for non-replicating M. tuberculosis project (AID 489025); assay type: functional
[7] = HepG2 cell cytotoxicity, dose response, cytotoxicity control for non-replicating M. tuberculosis project (AID 489018); assay type: functional; conditions: Mycobacterium tuberculosis
[8] = target: T1, DNA repair and recombination protein RAD54-like (Homo sapiens, UniProt Q92698); test: inhibitors of human RAD54 branch migration, confirmation, biochemical, fluorescence, cherry-picked samples, dose series (AID 651657); assay type: functional
T1 sequence (Q92698 whole entry): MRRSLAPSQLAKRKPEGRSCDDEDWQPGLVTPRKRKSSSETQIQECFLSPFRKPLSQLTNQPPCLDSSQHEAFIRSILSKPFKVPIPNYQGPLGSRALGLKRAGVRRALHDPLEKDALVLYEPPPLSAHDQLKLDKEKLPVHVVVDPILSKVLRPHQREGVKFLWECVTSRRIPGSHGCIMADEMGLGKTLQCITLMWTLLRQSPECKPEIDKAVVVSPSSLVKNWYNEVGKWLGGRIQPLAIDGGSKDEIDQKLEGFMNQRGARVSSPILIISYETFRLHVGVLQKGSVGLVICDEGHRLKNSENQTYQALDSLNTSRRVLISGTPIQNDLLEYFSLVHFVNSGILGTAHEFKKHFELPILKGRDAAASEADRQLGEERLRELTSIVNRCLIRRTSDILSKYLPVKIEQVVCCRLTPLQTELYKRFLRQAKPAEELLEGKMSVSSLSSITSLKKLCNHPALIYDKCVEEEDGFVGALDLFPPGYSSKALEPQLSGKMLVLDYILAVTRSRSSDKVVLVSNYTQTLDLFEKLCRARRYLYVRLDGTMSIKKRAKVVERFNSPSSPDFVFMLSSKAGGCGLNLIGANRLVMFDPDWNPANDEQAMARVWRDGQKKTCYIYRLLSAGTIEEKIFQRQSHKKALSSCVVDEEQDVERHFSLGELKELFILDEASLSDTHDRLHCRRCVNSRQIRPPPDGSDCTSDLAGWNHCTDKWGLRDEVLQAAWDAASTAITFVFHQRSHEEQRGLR

[9] = inhibitors of SNCA 5'UTR-driven translation, confirmation, luminescence, H4 neuroglioblastoma cells, dose confirmation (AID 2454); assay type: functional, cell-based;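 note: H4 neuroglioblastoma cells carrying an alpha-synuclein 5'UTR luciferase reporter; potency for inhibition of the luciferase signal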
[10] = luciferase reporter signal reduction – luminescence, H4-C neuroglioblastoma cells, dose response (AID 2458); assay type: functional, cell-based;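 note: H4 neuroglioblastoma cells stably carrying a luciferase reporter gene fusion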
[11] = target: T2, Heat shock factor protein 1 (Mus musculus, UniProt P38532); test: HSF1 potentiators in luciferase reporter cells, confirmation, cell-based, NIH3T3, luminescence, dose retest (AID 435004); assay type: functional;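 note: stress induced by proteasome inhibitor MG132 added 30 min after compound; luciferase reporter driven by HSF1 response element in NIH3T3 cells; actives raise luminescence as potentiators of the MG132 stress response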
T2 sequence (P38532 whole entry): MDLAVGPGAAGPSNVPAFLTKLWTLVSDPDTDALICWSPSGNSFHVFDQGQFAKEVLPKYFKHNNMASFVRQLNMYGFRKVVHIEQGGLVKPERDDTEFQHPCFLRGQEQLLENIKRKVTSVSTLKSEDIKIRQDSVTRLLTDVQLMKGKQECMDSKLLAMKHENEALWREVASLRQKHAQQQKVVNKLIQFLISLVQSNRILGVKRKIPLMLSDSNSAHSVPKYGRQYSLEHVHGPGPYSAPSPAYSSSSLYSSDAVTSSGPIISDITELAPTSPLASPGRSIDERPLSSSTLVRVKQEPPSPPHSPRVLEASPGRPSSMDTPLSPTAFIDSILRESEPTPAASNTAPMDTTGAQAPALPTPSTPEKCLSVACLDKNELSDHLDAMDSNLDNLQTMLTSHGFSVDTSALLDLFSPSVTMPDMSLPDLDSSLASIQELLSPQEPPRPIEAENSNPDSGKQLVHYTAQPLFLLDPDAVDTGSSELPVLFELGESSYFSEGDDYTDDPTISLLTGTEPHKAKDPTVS

[12] = cytotoxicity in HEK-293T cells, dose response, cytotoxicity control for TCR NF-kB inhibitor project, luminescence, T-cell screen hits (AID 489026); assay type: functional, cell-based;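 note: cells exposed to compound about 14 hours before the viability readout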
[13] = Vero E6 cell cytotoxicity, dose response, cytotoxicity control for non-replicating M. tuberculosis project, secondary assay (AID 492998); assay type: functional, VeroE6; conditions: Vero C1008
[14] = tested on: Streptococcus sp. 'group A'; test: growth inhibition of control SK(-) GAS strain, dose response, counter-screen for streptokinase expression inhibitor project, luminescence, kanamycin, BacTiterGlo, confirmation (AID 1900); assay type: functional, organism-based
Streptococcus = test: Group A Streptococcus viability loss, dose response, counter-screen for streptokinase expression inhibitor project, luminescence, BacTiterGlo (AID 1915); assay type: functional, organism-based;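 note: potency for reduction of bacterial viability or growth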
[15] = inhibitors of firefly luciferase expression or activity, dose response, H4 neuroglioma cells, luminescence (AID 1990); assay type: functional, cell-based
[16] = target: T3, Nucleotide-binding oligomerization domain-containing protein 1 (Homo sapiens, UniProt Q9Y239); test: NOD1 signaling inhibitors, SAR follow-up, revised (AID 2333); assay type: functional
T3 sequence (Q9Y239 whole entry): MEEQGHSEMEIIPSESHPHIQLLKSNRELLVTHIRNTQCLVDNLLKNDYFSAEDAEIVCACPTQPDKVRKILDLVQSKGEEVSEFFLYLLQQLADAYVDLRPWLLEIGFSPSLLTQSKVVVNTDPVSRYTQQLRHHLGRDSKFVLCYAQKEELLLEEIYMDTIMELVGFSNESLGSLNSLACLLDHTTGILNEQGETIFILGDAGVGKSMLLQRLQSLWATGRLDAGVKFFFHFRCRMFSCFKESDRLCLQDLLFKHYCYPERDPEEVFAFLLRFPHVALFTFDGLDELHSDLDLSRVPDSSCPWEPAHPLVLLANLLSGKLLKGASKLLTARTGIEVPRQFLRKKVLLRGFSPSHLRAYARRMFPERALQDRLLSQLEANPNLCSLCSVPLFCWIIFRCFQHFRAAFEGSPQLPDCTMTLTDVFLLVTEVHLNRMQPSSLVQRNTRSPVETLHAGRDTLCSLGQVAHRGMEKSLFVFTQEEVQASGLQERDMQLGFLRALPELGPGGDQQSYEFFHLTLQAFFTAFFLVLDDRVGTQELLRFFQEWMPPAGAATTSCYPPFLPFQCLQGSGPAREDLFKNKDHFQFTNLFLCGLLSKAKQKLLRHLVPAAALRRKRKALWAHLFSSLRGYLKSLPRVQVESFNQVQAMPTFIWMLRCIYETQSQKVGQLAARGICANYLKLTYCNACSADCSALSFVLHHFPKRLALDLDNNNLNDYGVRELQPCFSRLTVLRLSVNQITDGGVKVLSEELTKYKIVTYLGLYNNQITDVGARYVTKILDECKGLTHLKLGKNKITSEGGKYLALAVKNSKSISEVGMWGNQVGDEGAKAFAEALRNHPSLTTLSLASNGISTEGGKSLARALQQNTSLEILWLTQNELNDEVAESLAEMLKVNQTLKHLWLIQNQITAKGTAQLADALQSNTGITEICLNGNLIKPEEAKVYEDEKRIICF

Tumor necrosis factor = Tumor necrosis factor (Homo sapiens, UniProt P01375); test: TNFa-triggered NF-kB activation inhibitors, SAR follow-up, cell-based, revised (AID 2337); assay type: functional
Chain of Tumor necrosis factor (P01375 whole entry): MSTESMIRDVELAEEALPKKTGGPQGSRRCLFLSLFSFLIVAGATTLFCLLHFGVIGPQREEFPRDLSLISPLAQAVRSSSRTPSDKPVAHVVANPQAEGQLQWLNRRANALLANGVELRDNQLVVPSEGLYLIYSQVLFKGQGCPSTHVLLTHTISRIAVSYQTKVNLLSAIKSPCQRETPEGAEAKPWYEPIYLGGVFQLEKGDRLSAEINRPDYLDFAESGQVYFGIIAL

[17] = target: T4, Corticotropin-releasing factor receptor 2/Corticotropin-releasing factor-binding protein (Homo sapiens, UniProt P24387+Q13324); test: activators of CRF receptor 2 with binding protein – uHTS hits, confirmation (AID 602473); assay type: functional; conditions: read-out: EC50_Mean
T4 sequence (Q13324 whole entry): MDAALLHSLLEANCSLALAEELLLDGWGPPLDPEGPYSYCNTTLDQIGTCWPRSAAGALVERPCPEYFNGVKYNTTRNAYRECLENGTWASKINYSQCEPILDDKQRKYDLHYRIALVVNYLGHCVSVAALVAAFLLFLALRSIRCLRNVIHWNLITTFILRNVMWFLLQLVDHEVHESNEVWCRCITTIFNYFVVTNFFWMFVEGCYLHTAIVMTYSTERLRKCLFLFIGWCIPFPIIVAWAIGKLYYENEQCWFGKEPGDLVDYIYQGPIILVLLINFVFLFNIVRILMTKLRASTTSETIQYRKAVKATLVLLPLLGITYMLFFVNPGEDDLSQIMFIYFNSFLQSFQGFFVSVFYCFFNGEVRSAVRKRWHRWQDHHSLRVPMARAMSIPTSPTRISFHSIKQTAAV
T4 sequence (P24387 whole entry): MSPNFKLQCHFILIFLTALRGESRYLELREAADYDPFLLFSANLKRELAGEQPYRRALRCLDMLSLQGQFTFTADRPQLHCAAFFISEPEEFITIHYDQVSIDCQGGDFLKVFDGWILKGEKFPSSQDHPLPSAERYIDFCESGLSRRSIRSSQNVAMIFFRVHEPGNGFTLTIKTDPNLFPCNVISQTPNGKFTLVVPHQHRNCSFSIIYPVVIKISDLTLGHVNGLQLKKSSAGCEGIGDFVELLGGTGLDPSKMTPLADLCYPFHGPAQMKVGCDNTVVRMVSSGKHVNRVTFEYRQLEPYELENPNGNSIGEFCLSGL

[18] = target: T4, Corticotropin-releasing factor receptor 2/Corticotropin-releasing factor-binding protein; test: Dose Response confirmation of uHTS hits for small molecule antagonists of the CRF-binding protein and CRF-R2 receptor complex.; assay type: functional; conditions: read-out: IC50_Mean
Streptokinase A = target: T5, Streptokinase A (Streptococcus pyogenes serotype M1, UniProt P10520); test: S. pyogenes streptokinase expression inhibitors, potency, dose response, plasminogen activation absorbance, OD405 (AID 1914); assay type: functional, Streptococcus pyogenes M1 GAS;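 note: secreted streptokinase activity via plasminogen activation per viability signal from cell pellet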
T5 sequence (P10520 whole entry): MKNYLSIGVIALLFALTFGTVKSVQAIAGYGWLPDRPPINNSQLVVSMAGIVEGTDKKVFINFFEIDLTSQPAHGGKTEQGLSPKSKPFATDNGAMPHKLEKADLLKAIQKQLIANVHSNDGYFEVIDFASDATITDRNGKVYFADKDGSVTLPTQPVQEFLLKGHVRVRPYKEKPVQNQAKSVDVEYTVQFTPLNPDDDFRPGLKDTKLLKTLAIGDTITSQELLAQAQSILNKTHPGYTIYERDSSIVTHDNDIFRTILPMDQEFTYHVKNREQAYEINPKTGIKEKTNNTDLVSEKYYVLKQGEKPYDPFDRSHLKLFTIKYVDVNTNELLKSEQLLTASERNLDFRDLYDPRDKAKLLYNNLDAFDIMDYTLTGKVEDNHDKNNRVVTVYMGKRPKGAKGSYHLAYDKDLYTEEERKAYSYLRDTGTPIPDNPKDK

[19] = target: Nucleotide-binding oligomerization domain-containing protein 2 (Homo sapiens, UniProt Q9HC29); test: PubChem AID 2334; assay type: functional
Chain of Nucleotide-binding oligomerization domain-containing protein 2 (Q9HC29 whole entry, the tested form may be a part): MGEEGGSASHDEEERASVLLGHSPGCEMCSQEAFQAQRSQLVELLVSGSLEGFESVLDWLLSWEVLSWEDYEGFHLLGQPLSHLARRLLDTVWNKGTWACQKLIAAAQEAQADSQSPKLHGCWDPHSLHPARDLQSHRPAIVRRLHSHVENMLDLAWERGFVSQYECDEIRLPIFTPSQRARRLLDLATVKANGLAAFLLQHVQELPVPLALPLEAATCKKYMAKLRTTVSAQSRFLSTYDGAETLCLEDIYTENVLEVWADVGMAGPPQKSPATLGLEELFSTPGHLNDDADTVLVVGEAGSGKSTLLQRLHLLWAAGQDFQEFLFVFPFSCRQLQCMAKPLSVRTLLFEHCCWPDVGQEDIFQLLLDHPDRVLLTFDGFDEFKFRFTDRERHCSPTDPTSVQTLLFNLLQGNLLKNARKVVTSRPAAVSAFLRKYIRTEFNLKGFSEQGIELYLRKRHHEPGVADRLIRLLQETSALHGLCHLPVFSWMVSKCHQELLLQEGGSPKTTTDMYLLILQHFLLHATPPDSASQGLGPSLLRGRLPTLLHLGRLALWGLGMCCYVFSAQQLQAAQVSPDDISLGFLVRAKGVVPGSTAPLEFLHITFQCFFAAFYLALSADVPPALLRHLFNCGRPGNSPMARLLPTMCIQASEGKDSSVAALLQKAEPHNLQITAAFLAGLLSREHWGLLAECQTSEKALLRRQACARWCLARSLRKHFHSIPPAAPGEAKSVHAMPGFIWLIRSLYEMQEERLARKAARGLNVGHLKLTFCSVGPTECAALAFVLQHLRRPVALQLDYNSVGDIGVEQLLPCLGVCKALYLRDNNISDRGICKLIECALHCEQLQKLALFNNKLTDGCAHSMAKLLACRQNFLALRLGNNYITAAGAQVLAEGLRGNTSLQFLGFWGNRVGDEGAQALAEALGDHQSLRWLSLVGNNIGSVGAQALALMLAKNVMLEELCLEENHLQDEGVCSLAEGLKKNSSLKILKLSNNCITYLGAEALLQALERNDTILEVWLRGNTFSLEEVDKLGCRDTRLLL

[20] = target: DNA dC->dU-editing enzyme APOBEC-3G (Homo sapiens, UniProt Q9HC16); test: Dose Response confirmation of small molecule APOBEC3G DNA Deaminase Inhibitors via a fluorescence-based single-stranded DNA deaminase assay. [Related pubchem assays (depositor defined):AID493012, AID493028]; assay type: functional
Chain of DNA dC->dU-editing enzyme APOBEC-3G (Q9HC16 whole entry): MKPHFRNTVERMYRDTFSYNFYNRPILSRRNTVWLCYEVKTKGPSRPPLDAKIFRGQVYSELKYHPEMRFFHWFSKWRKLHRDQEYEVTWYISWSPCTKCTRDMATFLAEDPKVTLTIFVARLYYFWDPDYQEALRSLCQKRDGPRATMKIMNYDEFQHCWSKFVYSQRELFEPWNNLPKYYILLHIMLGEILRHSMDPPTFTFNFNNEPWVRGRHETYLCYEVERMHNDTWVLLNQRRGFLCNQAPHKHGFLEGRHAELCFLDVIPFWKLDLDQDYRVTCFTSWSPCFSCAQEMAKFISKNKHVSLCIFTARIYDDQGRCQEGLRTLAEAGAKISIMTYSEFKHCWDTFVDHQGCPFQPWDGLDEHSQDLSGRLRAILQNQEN

[21] = target: Neuropeptides B/W receptor type 1 (Homo sapiens, UniProt P48145); test: Fluorescence-based dose response cell-based high throughput screening assay to identify antagonists of the G-protein coupled receptor 7 (GPR7). [Related pubchem assays: 1952 (Screening assay (GPR7 antagonists).), 1880 (Summary AID.)]; assay type: functional
Chain of Neuropeptides B/W receptor type 1 (P48145 whole entry): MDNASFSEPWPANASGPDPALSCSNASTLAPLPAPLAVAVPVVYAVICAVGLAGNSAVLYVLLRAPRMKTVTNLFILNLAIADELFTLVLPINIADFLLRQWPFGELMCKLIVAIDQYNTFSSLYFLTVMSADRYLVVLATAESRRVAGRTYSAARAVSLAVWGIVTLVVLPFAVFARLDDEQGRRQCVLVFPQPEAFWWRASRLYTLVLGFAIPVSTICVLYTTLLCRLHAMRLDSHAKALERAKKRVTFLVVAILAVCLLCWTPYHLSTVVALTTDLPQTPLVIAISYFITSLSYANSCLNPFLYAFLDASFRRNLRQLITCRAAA

[22] = target: Melanin-concentrating hormone receptor 1 (Homo sapiens, UniProt Q99705); test: Fluorescence-based counterscreen for antagonists of the G-protein coupled receptor 7 (GPR7): cell-based high throughput dose response assay to identify antagonists of the melanin-concentrating hormone receptor 1 (MCHR1).; assay type: functional
Chain of Melanin-concentrating hormone receptor 1 (Q99705 whole entry): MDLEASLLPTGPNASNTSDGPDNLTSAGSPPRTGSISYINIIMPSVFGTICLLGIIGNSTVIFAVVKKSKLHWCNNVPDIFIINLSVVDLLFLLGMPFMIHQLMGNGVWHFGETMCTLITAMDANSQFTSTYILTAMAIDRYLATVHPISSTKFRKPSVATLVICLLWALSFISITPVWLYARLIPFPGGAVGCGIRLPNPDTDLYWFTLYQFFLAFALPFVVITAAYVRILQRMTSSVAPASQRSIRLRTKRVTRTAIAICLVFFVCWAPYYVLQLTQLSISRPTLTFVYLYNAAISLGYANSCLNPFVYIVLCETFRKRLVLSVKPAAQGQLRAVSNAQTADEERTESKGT

[23] = Luminescence Cell-Based Dose Retest to Confirm Inhibitors of Cancer Stem Cells. [Related pubchem assays (depositor defined):AID2717, AID2721]; assay type: functional; conditions: Homo sapiens
X-box-binding protein 1 = X-box-binding protein 1 (Homo sapiens, UniProt P17861); assay type: functional, Cricetulus griseus;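 note: confirmatory dose-response counter-screen serving a CHOP assay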
Chain of X-box-binding protein 1 (P17861 whole entry): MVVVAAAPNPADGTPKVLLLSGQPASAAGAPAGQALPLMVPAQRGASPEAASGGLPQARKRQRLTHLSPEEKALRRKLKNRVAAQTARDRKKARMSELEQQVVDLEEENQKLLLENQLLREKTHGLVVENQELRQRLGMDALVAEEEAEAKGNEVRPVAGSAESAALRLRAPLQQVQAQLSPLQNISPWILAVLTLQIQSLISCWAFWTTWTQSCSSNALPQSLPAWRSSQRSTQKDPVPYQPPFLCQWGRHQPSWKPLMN

Chain of Cyclin-dependent kinase 5/CDK5 activator 1 (Q00535 whole entry): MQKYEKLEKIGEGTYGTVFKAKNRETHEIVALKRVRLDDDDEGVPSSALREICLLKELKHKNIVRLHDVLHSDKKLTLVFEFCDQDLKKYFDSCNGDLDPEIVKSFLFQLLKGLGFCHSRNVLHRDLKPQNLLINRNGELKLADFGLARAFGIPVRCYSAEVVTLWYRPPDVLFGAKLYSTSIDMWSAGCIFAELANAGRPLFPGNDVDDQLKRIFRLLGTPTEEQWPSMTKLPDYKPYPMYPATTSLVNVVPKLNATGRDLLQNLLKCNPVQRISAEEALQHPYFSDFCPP
Chain of Cyclin-dependent kinase 5/CDK5 activator 1 (Q15078 whole entry, further chain): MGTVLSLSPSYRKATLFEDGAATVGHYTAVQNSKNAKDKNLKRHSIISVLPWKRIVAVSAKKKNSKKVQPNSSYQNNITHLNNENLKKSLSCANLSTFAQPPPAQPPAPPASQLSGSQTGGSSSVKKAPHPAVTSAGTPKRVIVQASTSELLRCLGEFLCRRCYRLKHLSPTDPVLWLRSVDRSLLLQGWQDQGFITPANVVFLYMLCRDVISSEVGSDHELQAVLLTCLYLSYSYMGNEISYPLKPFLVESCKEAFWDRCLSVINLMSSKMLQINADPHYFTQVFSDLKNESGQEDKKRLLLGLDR

Compound: Nc1nc(Nc2ccccc2F)sc1C(=O)c1ccccc1
- AC50 [1]: 60 µM (active)
- EC50 [2]: 0.159 µM (active)

Compound: COC(=O)c1c(NC(=O)c2ccc([N+](=O)[O-])o2)sc2c1CCN(C(C)C)C2
- IC50 (cells [3]): 0.65 µM (active)
- EC50 [4]: < 0.1 µM (active)
- EC50 (cells [5]): 11.8 µM (active)
- CC50 [6]: 1.5 µM (active)
- CC50 [7]: 6.72 µM (active)
- AC50 [8]: 43.4 µM (active)
- EC50 [9]: 1.52 µM (active)
- EC50 [10]: 1.29 µM (active)
- EC50 [11]: 26 µM (active)
- IC50 [12]: > 80 µM (inactive)
- CC50 [13]: 0.37 µM (active)
- EC50 [14]: 4.11 µM (active)
- EC50 (Streptococcus): 7.32 µM (active)
- EC50 [15]: > 120 µM (not active)

Compound: Cc1ccc(SCc2cc(=O)[nH]c(SCC(=O)Nc3cc(Cl)ccc3Cl)n2)cc1
- IC50 [16]: 7.37 µM (active)
- IC50 (Tumor necrosis factor): 8.65 µM (active)
- EC50 [17]: > 53 µM (inactive)
- IC50 [18]: 5.65 µM (active)
- EC50 (Streptokinase A): 42.6 µM (inconclusive)
- IC50 [19]: 9.95 µM (active)

Compound: Cc1cccc(Nc2nc(N)c([N+](=O)[O-])c(NCCO)n2)c1
- AC50 [1]: 15.2 µM (active)

Compound: CC(=O)c1sc2nsc(SCCN3CCOCC3)c2c1N
- IC50 [20]: 34.4 µM (active)

Compound: O=C(NC1CCCCCCC1)C1c2ccccc2C(=O)N1Cc1cccs1 (stereo not drawn)
- IC50 [21]: > 43.8 µM (not active)
- IC50 [22]: 15.9 µM (not active)

Compound: Cc1[nH]c2ccccc2c1/C=N/NC(=O)C1CC1(c1ccccc1)c1ccccc1 (stereo not drawn)
- AC50 [23]: 3.79 µM (active)
- Absolute IC50 (XBP1) (X-box-binding protein 1): 10 µM
